± gives the standard deviation of the averaged measurements.
What was measured:
Assay in all cases: LOEC (log10 uM (lowest observed effect concentration))
[1] = compound: C=CC(=O)OCCC(F)(F)C(F)(F)C(F)(F)C(F)(F)F [2-(Perfluorobutyl)ethyl acrylate]
Description: (§1)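 BioMAP Diversity Plus panel in human primary cell co-cultures, 4 concentrations in duplicate blinded samples. Responses are log10 fold change versus DMSO control, processed with tcpl v2.1.0. A hit is called when responses at any concentration exceed the cutoff (the larger of 3*bmad or log10(1.2)); the lowest observed effect concentration (modl_ga, log10 uM) is reported for hits.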

[2] = compound: O=C(O)C(F)(F)C(F)(F)C(F)(F)C(F)(F)C(F)(F)C(F)(F)C(F)(F)C(F)(F)Cl [9-Chloro-perfluorononanoic acid]
Description: as §1

[3] = compound: Cn1cnc([N+](=O)[O-])c1Sc1ncnc2[nH]cnc12 [Azathioprine]
Description: as §1

[4] = compound: N=C(N)C(F)(F)C(F)(F)C(F)(F)C(F)(F)C(F)(F)C(F)(F)C(F)(F)F [Perfluorooctanamidine]
Description: as §1

[5] = compound: O=P(O)(O)CCC(F)(F)C(F)(F)C(F)(F)C(F)(F)C(F)(F)C(F)(F)C(F)(F)C(F)(F)F [((Perfluorooctyl)ethyl)phosphonic acid]
Description: as §1

[6] = compound: O=C(O)C(F)(F)C(F)(F)C(F)(F)C(F)(F)C(F)(F)C(F)(F)C(F)(F)C(F)(F)C(F)(F)C(F)(F)C(F)(F)C(F)(F)F [Perfluorotridecanoic acid]
Description: as §1

[7] = compound: O=C(O)C(F)(F)OC(F)(F)C(F)(F)OC(F)(F)C(F)(F)C(F)(F)C(F)(F)F [Perfluoro-3,6-dioxadecanoic acid]
Description: as §1

[8] = compound: CNS(=O)(=O)C(F)(F)C(F)(F)C(F)(F)C(F)(F)C(F)(F)C(F)(F)C(F)(F)C(F)(F)F [N-Methylperfluorooctanesulfonamide]
Description: as §1

[9] = compound: O=S(=O)(O)C(F)(F)C(F)(F)C(F)(F)C(F)(F)C(F)(F)C(F)(F)C(F)(F)C(F)(F)F [Potassium perfluorooctanesulfonate]
Description: as §1

[10] = compound: O=S(=O)(O)C(F)(F)C(F)(F)C(F)(F)C(F)(F)C(F)(F)C(F)(F)C(F)(F)C(F)(F)F [Perfluorooctanesulfonic acid]
Description: as §1

SAg IL8 down
LOEC (log10 uM) [1]: 1.78 | LOEC (log10 uM) [2]: 1.78 | LOEC (log10 uM) [3]: 1.48

SAg MCP1 down
LOEC (log10 uM) [1]: 1.78 | LOEC (log10 uM) [2]: 1.78

SAg PBMCCytotoxicity down
LOEC (log10 uM) [1]: 1.78 | LOEC (log10 uM) [4]: 1.78

SAg Proliferation down
LOEC (log10 uM) [1]: 1.54 ± 0.34 | LOEC (log10 uM) [4]: 1.78 | LOEC (log10 uM) [3]: 0.954

SAg SRB down
LOEC (log10 uM) [2]: 1.78 | LOEC (log10 uM) [5]: 1.78 | LOEC (log10 uM) [4]: 1.78

hDFCGF CollagenIII down
LOEC (log10 uM) [2]: 1.3 | LOEC (log10 uM) [6]: 0.477 | LOEC (log10 uM) [7]: 1.78 | LOEC (log10 uM) [5]: 1.3 | LOEC (log10 uM) [4]: 1.3 | LOEC (log10 uM) [3]: 0.977 ± 0.71

hDFCGF EGFR down
LOEC (log10 uM) [7]: 1.78

hDFCGF ICAM1 down
LOEC (log10 uM) [8]: 1.78 | LOEC (log10 uM) [1]: 1.78 | LOEC (log10 uM) [2]: 1.07 ± 0.32

hDFCGF IP10 down
LOEC (log10 uM) [9]: 1.07 ± 0.32 | LOEC (log10 uM) [1]: 1.3 | LOEC (log10 uM) [2]: 1.3 | LOEC (log10 uM) [6]: 0.239 ± 0.34 | LOEC (log10 uM) [7]: 1.54 ± 0.34 | LOEC (log10 uM) [3]: 1.22 ± 0.37 | LOEC (log10 uM) [10]: 1.3

hDFCGF ITAC down
LOEC (log10 uM) [9]: 1.78 | LOEC (log10 uM) [1]: 1.07 ± 0.32 | LOEC (log10 uM) [2]: 0.573 ± 0.39 | LOEC (log10 uM) [6]: 0.239 ± 0.34 | LOEC (log10 uM) [7]: 1.54 ± 0.34 | LOEC (log10 uM) [3]: 0.977 ± 0.71

hDFCGF MCP1 down
LOEC (log10 uM) [2]: 1.78

hDFCGF MCSF down
LOEC (log10 uM) [9]: 1.78 | LOEC (log10 uM) [1]: 1.3 | LOEC (log10 uM) [2]: 1.78 | LOEC (log10 uM) [7]: 1.78 | LOEC (log10 uM) [4]: 1.78 | LOEC (log10 uM) [3]: 1.48

hDFCGF MIG down
LOEC (log10 uM) [9]: 1.78 | LOEC (log10 uM) [1]: 1.3 | LOEC (log10 uM) [2]: 1.3 | LOEC (log10 uM) [6]: 0.716 ± 0.34 | LOEC (log10 uM) [7]: 1.54 ± 0.34

hDFCGF MMP1 down
LOEC (log10 uM) [2]: 0.845

hDFCGF MMP1 up
LOEC (log10 uM) [1]: 1.54 ± 0.34

hDFCGF PAI1 down
LOEC (log10 uM) [2]: 1.78 | LOEC (log10 uM) [5]: 1.78 | LOEC (log10 uM) [4]: 1.78 | LOEC (log10 uM) [3]: 1.48

hDFCGF SRB down
LOEC (log10 uM) [2]: 1.78

hDFCGF TIMP2 down
LOEC (log10 uM) [9]: 1.54 ± 0.34 | LOEC (log10 uM) [2]: 1.3 | LOEC (log10 uM) [10]: 1.78

hDFCGF VCAM1 down
LOEC (log10 uM) [9]: 1.78 | LOEC (log10 uM) [8]: 0.573 ± 0.39 | LOEC (log10 uM) [1]: 1.3 | LOEC (log10 uM) [2]: 1.78 | LOEC (log10 uM) [6]: 0.977 ± 0.71 | LOEC (log10 uM) [7]: 1.3 | LOEC (log10 uM) [4]: 1.54 ± 0.34 | LOEC (log10 uM) [3]: 1.48 | LOEC (log10 uM) [10]: 1.78

Reference: the supplement of paper PMC10331698
